# Key:
# C57Bl/6J mice = assay: Oral glucose tolerance test in mice (with sitagliptin); type: in vivo; settings: glucose 2 g/kg, FIG. 1
# Experimental: C57Bl/6J mice were fasted for 6 hours prior to drug administration. Blood glucose was measured after the 6 hour fast (T30 min), and animals were sorted into groups evenly matched for fasting glucose levels. At T30, drug suspension was administered to the mice by oral gavage. Glucose was administered at TO min at 2 g/kg. The administration volume was 5 mL/kg of body weight. Blood was sampled at TO, prior to glucose administration, then at 15, 30, 60, 90 and 120 min after glucose administration for measurement of glucose by glucometer. 10 mice were used for each dose group. The formulation of 5-Ethyl-2-{4-[4-(4-tetrazol-1-yl-phenoxymethyl)-thiazol-2-yl]-piperidin-1-yl}-pyrimidine and sitagliptin was 1% carboxymethylcellulose, 2% Tween 80 prepared in a manner essentially as described in Example 2. The formulation was a suspension and was continuously stirred during dosing of the animals.
# Glucose levels were plotted against time and the incremental area under the curve (AUC) of the glucose excursion was determined from T0 to T120 using GraphPad Prism 5.1. Statistical significance of differences in AUC between compound treatment and vehicle was determined by non-parametric Kruskal-Wallis test with Dunn's post test. […] Statistical differences in the glucose levels at each time point during OGTT were determined by two way ANOVA with Bonferroni's post test. […]
# mice = assay: Incretin secretion of mice, dose response on top of sitagliptin; type: in vivo; settings: increasing dosages (1, 3, 10, 30 and 300 mg/kg) given in addition to sitapliptin at 100 mg/kg, 10 minutes after glucose, FIG. 5a
# Experimental: 5-Ethyl-2-{4-[4-(4-tetrazol-1-yl-phenoxymethyl)-thiazol-2-yl]-piperidin-1-yl}-pyrimidine, sitagliptin, and vildagliptin were prepared as in Examples 1 and 2.
# Mice were fasted for 6 h prior to drug administration. Blood glucose was measured after the 6 h fast (T30 min), and animals were sorted into 6 groups evenly matched for fasting glucose levels and body weight. At T30 min, drug suspension as prepared in Example 1 herein, was administered to the mice by oral gavage. All groups were given sitagliptin at 100 mg/kg, and Compound 1 was given at 1, 3, 10, 30 and 300 mg/kg. 100 mg/kg sitagliptin was chosen since this dose is greater than that required to achieve 80% DPP-IV inhibition in mice over the time period evaluated in this study. (Kim et al, 2005). Glucose (2 g/kg) was administered by oral gavage at T0. Animals were anesthetized and blood drawn by terminal cardiac puncture 10 minutes after glucose administration. To address the effects on incretin production, total GIP levels were measured. […] The DPP-IV inhibitor sitagliptin was co-administered to prevent breakdown of active GLP-1 by DPP-IV (Kim et al; 2005). Statistical significance of differences in GLP-1, GIP and glucose levels between compound+sitagliptin treatment and sitagliptin alone was determined by one way ANOVA with Dunnet's post test. Differences with a p value less than 0.05 were considered significant. […]
SMILES,incremental AUC of the glucose excursion T0 to T120 (C57Bl/6J mice; compound only at 30 mg/kg oral gavage),secretion of active GLP-1 (mice),incremental AUC of the glucose excursion T0 to T120 (C57Bl/6J mice; sitagliptin alone at 10 mg/kg oral gavage)
CCc1cnc(N2CCC(c3nc(COc4ccc(-n5cnnn5)cc4)cs3)CC2)nc1 [5-Ethyl-2-{4-[4-(4-tetrazol-1-yl-phenoxymethyl)-thiazol-2-yl]-piperidin-1-yl}-pyrimidine],approximately 3200 mg.min/dl,stimulated secretion of active GLP-1,–
"N[C@@H](CC(=O)N1CCn2c(nnc2C(F)(F)F)C1)Cc1cc(F)c(F)cc1F [sitagliption, sitagliptin, reference compound]",–,–,approximately 2800 mg.min/dl
